Patent US20060211624A1, “Methods and compositions for the treatment of parkinson's disease and other alpha-synucleinopathies” (Goverment of the US, as Represented by, priority 2003, published 2006)

Experiments:
tTGase [1] = target: T1, tTGase (Homo sapiens, UniProt P21980); experiment: tTGase-induced α-synuclein aggregates by immunocytochemistry in transfected HEK293T cells; assay type: cell-based; conditions: 48 hours
T1 construct: expressed in transfected cells; host or cells: COS-7 (A2); HEK293T (A3); pSG5 expression vector
T1 sequence (P21980 1-687): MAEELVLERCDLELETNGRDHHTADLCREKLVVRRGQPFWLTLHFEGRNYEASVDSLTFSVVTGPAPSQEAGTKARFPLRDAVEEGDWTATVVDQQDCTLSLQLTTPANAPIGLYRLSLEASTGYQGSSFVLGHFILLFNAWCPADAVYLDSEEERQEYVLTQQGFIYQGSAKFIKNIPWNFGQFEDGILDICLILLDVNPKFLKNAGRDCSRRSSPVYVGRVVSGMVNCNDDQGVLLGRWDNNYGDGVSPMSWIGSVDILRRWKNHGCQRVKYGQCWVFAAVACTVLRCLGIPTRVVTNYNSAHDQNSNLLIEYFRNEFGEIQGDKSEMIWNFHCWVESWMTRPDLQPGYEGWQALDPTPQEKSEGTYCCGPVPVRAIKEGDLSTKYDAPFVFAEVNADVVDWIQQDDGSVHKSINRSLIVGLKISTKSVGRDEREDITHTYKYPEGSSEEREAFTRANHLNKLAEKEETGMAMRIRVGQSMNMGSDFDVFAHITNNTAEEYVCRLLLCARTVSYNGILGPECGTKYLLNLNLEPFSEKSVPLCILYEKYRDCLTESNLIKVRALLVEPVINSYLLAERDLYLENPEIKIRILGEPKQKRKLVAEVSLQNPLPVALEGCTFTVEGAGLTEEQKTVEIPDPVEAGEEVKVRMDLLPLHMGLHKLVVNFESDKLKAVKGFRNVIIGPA
Description: FIG. 1 depicts α-Synuclein the detection of aggregates by immunocytochemistry. HEK293T cells transiently transfected with α-synuclein in the absence or presence of tTGase were treated with CTM (100 μM, 200 μM) or A23187 (0.1 μg/ml) for 48 hours and stained for α-synuclein and tTGase. Aggregate-containing cells among transfected cells were counted in 10 randomly selected fields. Each microscopic field had 10-20 transfected cells. The data represent means±SEM. Significance levels determined by factorial ANOVA and the Bonferroni post hoc test are shown. *, P<0.002; * *, P<0.06; * * *, P<0.02.
(§1) COS-7 and human embryonic kidney (HEK) 293T cell lines were maintained in DMEM containing 10% FBS. Transfections were performed by using FuGene 6 reagent (Roche Molecular Biochemicals, Indianapolis, Ind.) for a 6 hour incubation period, and then treatments were initiated.
HEK 293T cells transiently transfected as described in the Examples below were cultured in the presence or absence of indicated chemicals in collagen-coated Biocoat slides (Becton Dickinson, Bedford, Mass.) for 48 hours. […] Cells were washed five times with PBS and analyzed under a fluorescence microscope (Axiophot, Zeiss, Thornwood, N.Y.). For quantification of inclusions, 10 microscopic fields were randomly selected, and the percentage of inclusion-positive cells was counted among transfected cells. […]

tTGase [2] = target: T1, tTGase; experiment: tTGase-induced α-synuclein aggregation in transfected COS-7 cells (detergent-insoluble fraction, Western blot); assay type: cell-based
Description: Suitable tTGase inhibitor compounds for use in the treatment methods and compositions of the invention can be also be assessed by a protocol referred to herein as ‘a standard in vivo tTGase inhibition assay’, set forth as follows: Cells (e.g., neurons, COS-7 cells, or HEK […] cells) are co-transfected with an α-synuclein and tTGase expression plasmids (1 μg each) using FuGene 6 reagent (Roche Molecular Biochemicals, Indianapolis, Ind.) for 6 hours and cultured in DMEM containing 10% FBS for 48 hours. Cells are then lysed in a buffer containing PBS with 1% Triton X-100 and a mixture of protease inhibitors (Roche Molecular Biochemicals). Cells are homogenized with 20 strokes in a Dounce homogenizer, centrifuged at 20,000×g at 4° C. for 30 minutes. The detergent-insoluble fraction is used in Western blot analysis using an anti-α-synuclein antibody as described above for the standard in vitro assay. The cells in the assay can be cultured in the presence or absence of a candidate compound to determine whether the candidate compound can inhibit the production of the high-molecular weight aggregates. This defined standard in vivo tTGase inhibition assay is exemplified in Examples 1 and 2 (including the materials and methods section) which follows.
α-Synuclein cDNA was cloned by PCR from human fetal brain cDNA library (Stratagene, La Jolla, Calif.) (Bennett, M. C. et al. (1999) J. Biol. Chem. 274:33855-33858) and subcloned into pcDNA3.1 (Invitrogen, Carlsbad, Calif.), and pTYB11 (New England Biolabs, Beverly, Mass.). tTGase cDNA was amplified by PCR from human liver cDNA library by using primers 5′-aagaattc[…]-3′ (SEQ ID NO:1) and 5′-aagaattc[…]-3′ (SEQ ID NO:2). Lowercase letters indicate additional nucleotides designed to facilitate cloning. The PCR product was inserted into pSG5 expression vector (Stratagene), and its sequence matched perfectly with the known cDNA sequence of human tTGase (Gentile, V. et al. (1991) J. Biol. Chem. 266:478-483). […] Mouse monoclonal tTGase antibody (CUB 7402) was purchased from DAKO (Carpinteria, Calif.). The rabbit polyclonal tTGase antibody was described in Kim. S. Y. et al. (1999) J. Biol. Chem. 274:30715-30721. Guinea pig liver tTGase, cystamine (CTM), and A23187 were purchased from Sigma (St. Louis, Mo.). Rabbit polyclonal α-synuclein antibodies were obtained from Sigma and Chemicon (Temecula, Calif.). Monoclonal anti-α-synuclein antibodies, SYN-1 and LB509, were from Transduction Laboratories (Lexington, Ky.) and Zymed (South San Francisco, Calif.), respectively. Monoclonal antibody recognizing ε(γ-glutamyl) lysine isodipeptide bonds (81D1C2) was purchased from Covalab (Lyon, France). Recombinant human α-synuclein protein was expressed in pTYB11 and purified by the IMPACT T7 system (New England Biolabs) according to the supplier's instructions.
as §1
Cells were lysed in a buffer containing PBS with 1% Triton X-100 and a mixture of protease inhibitors (Roche Molecular Biochemicals). […] Immunoprecipitates were analyzed by Western blots with antiisodipeptide antibody (81D1C2) or anti-α-synuclein antibody SYN-1 with the ECL detection system (NEN, Boston, Mass.). […]

guinea pig liver tTGase = target: T2, guinea pig liver tTGase (Cavia cutleri, UniProt P08587); experiment: In vitro cross-linking reaction of α-synuclein by tTGase (SDS/PAGE, Western blot); assay type: biochemical; conditions: 37° C., 2 hours
T2 construct: purified guinea pig liver tTGase (10 nM); purchased Sigma (St. Louis, Mo.); host or cells: guinea pig liver
T2 sequence (P08587 1-690): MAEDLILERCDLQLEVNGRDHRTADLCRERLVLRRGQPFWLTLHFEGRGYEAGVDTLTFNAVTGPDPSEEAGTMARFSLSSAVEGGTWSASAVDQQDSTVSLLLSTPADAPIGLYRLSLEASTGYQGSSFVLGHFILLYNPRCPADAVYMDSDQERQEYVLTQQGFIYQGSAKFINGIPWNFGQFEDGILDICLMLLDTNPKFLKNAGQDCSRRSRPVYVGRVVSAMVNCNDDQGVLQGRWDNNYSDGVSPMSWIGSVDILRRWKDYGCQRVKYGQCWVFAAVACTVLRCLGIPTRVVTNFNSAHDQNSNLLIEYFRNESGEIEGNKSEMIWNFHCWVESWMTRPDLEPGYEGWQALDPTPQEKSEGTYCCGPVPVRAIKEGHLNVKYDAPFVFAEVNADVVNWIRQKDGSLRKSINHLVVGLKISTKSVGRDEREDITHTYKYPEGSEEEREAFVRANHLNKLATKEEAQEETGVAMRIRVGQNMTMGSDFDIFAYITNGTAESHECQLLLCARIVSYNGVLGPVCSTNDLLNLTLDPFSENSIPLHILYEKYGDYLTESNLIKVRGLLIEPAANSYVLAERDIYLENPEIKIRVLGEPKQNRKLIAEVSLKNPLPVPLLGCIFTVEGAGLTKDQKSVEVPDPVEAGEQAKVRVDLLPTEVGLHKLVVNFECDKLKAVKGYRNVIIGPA
Description: Suitable tTGase inhibitor compounds for use in the treatment methods and compositions of the invention can be assessed by straightforward protocols, such as the following. […] The reaction products are then analyzed by standard SDS/PAGE and Western blot using an anti-α-synuclein antibody (e.g., rabbit polyclonal antibodies, available from Sigma or Chemicon (Temecula, Calif.); or monoclonal antibodies such as SYN-1 or LB509, available from Signal Transduction Laboratories (Lexington, Ky.) and Zymed (South San Francisco, Calif.), respectively). […]
The reaction was performed at 37° C. for 2 hours in a buffer containing 50 mM Tris-HCl (pH 7.5), 2 mM leupeptin, and 1 mM purified α-synuclein. […] The reaction was stopped by the addition of 20 mM EDTA, and products were analyzed by SDS/PAGE followed by Western blot.
To study the in vitro cross-linking of α-synuclein, purified recombinant human α-synuclein protein was incubated with guinea pig liver tTGase for 2 hours at 37° C., and the reaction products were analyzed by SDS/PAGE, followed by Western blotting with anti-α-synuclein antibody. […]

[3] = delayed treatment, 200 μM during the final 48 hours of 96 hours, COS-7

For CNc1ccc2oc(C[C@H]3O[C@@]4(CC[C@H]3C)O[C@H]([C@H](C)C(=O)c3ccc[nH]3)[C@H](C)C[C@H]4C)nc2c1C(=O)O [A23187], the “aggregate formation (aggregate-containing cells among transfected cells)” value (tTGase [1]; HEK293T cells, 0.1 μg/ml) was “significantly increased”, the “high molecular weight bands of α-synuclein” value (tTGase [2]; COS-7 cells transfected with only α-synuclein, 0.1 μg/ml) was “some high molecular weight bands” and the “formation of α-synuclein aggregates” value (tTGase [2]; α-synuclein- and tTGase-transfected COS-7 cells, 0.1 μg/ml) was “significant increase”.

For NCCSSCCN [CTM, cystamine], the “inclusion formation (aggregate-containing cells among transfected cells)” value (tTGase [1]; HEK293T cells coexpressing α-synuclein and tTGase, 100 μM, 200 μM) was “decreased inclusion formation”, the “further de novo aggregation occurring during the final 48 hours” value (tTGase [2]; [3]) was “inhibited further de novo aggregation” and the “level of aggregates formed during the initial 48 hours (preformed aggregates)” value (tTGase [2]; [3]) was “did not diminish”. The “formation of tTGase-induced α-synuclein aggregates” value (tTGase [2]; α-synuclein- and tTGase-transfected COS-7 cells, 200 μM for 48 hours) was “dramatically inhibited”.

With [Ca+2].[Cl-].[Cl-] [CaCl2] the “generation of high molecular weight aggregates of α-synuclein” value (guinea pig liver tTGase; addition of CaCl2 (5 mM), tTGase 10 nM, DTT 0.1 mM) was “significantly enhanced”.

In the case of O=C(O)CN(CCN(CC(=O)O)CC(=O)O)CC(=O)O [EDTA], the “aggregate formation (α-synuclein)” value (guinea pig liver tTGase; chelation with EDTA (0.1 mM, 5 mM)) is reported as “dose-dependently blocked”.
